Data reported in patent US12479847B2 (DANA-FARBER CANCER INSTITUTE, INC., priority 2019, dated 2025).

What was measured:
Test in all cases: KINOMEscan (ScanMAX) kinase profiling
Assay type in all cases: binding
panel of 468 kinases [1] = target: T1, panel of 468 kinases (Homo sapiens, UniProt Q04912); conditions: MST1R; 1 μM; read-out: % control
T1 construct: purchased KINOMEscan (ScanMAX) service

panel of 468 kinases [2] = target: T2, panel of 468 kinases (Homo sapiens, UniProt Q9BQI3); conditions: EIF2AK1; 1 μM; read-out: % control
T2 construct: purchased KINOMEscan (ScanMAX) service

panel of 468 kinases [3] = target: T3, panel of 468 kinases (Homo sapiens, UniProt Q00532); conditions: CDKL1; 1 μM; read-out: % control
T3 construct: purchased KINOMEscan (ScanMAX) service
T3 sequence (Q00532 whole entry): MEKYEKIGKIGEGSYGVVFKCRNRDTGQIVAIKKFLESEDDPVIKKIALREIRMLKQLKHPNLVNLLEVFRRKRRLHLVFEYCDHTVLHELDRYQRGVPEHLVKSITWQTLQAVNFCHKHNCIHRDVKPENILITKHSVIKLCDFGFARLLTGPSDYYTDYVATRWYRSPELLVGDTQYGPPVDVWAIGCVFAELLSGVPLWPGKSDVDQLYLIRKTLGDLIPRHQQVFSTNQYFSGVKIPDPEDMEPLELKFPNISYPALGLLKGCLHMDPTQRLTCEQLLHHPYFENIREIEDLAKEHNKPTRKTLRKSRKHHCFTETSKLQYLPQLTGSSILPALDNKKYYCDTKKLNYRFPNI

panel of 468 kinases [4] = target: T4, panel of 468 kinases (Homo sapiens, UniProt Q9H2G2); conditions: SLK; 1 μM; read-out: % control
T4 construct: purchased KINOMEscan (ScanMAX) service
T4 sequence (Q9H2G2 whole entry): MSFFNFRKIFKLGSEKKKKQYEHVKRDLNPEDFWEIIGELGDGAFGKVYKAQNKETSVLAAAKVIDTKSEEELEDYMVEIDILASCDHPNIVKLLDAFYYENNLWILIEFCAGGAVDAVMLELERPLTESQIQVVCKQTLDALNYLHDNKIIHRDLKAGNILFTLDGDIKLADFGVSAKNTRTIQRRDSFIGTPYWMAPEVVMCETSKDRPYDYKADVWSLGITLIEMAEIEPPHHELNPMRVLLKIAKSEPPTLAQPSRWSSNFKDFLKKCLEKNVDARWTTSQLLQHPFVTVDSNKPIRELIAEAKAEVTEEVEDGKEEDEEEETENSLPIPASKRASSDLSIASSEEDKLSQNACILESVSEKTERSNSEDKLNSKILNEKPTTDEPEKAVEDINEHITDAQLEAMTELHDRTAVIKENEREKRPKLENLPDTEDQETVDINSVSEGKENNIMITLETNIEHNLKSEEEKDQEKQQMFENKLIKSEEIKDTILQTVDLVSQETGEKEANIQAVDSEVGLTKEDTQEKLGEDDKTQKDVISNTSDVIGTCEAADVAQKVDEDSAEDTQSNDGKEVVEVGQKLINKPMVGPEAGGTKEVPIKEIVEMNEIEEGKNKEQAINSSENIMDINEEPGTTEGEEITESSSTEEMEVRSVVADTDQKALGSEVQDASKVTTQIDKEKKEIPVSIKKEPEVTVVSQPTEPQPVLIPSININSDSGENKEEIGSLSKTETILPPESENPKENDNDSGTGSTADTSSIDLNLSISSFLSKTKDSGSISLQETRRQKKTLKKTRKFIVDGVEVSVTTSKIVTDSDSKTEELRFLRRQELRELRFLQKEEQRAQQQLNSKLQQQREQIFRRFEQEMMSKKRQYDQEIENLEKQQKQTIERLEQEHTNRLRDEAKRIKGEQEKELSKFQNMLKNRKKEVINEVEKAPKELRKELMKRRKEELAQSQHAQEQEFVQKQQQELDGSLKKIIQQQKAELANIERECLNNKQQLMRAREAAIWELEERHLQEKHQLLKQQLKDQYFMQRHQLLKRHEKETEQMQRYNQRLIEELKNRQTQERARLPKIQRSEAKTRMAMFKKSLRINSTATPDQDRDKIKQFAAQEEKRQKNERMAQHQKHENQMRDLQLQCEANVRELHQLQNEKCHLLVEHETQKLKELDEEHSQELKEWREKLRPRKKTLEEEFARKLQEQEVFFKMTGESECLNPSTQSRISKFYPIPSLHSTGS

panel of 468 kinases [5] = target: T5, panel of 468 kinases (Homo sapiens, UniProt Q16288); conditions: TRKC; 1 μM; read-out: % control
T5 construct: purchased KINOMEscan (ScanMAX) service
T5 sequence (Q16288 32-839): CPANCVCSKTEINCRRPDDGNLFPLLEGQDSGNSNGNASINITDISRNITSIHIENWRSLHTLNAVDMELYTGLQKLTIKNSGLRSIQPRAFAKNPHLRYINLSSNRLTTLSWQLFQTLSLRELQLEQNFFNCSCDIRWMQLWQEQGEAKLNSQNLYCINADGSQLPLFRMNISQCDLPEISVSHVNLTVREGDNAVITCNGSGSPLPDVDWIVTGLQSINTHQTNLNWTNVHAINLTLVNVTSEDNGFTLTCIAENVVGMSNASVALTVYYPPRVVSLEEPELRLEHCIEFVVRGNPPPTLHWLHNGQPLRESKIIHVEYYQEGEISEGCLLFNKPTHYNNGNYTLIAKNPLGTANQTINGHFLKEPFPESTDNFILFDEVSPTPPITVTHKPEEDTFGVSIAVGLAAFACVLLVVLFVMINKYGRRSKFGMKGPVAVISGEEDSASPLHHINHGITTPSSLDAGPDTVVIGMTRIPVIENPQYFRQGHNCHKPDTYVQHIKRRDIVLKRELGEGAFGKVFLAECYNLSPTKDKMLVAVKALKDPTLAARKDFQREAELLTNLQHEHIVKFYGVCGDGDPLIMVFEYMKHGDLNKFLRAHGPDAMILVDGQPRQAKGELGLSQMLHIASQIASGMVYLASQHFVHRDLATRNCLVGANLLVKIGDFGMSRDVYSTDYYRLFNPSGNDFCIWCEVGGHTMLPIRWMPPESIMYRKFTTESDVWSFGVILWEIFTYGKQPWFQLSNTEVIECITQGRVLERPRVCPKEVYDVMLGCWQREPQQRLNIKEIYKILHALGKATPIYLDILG

panel of 468 kinases [6] = target: T6, panel of 468 kinases (Homo sapiens, UniProt Q6ZWH5); conditions: NEK10; 1 μM; read-out: % control
T6 construct: purchased KINOMEscan (ScanMAX) service
T6 sequence (Q6ZWH5 1-1172): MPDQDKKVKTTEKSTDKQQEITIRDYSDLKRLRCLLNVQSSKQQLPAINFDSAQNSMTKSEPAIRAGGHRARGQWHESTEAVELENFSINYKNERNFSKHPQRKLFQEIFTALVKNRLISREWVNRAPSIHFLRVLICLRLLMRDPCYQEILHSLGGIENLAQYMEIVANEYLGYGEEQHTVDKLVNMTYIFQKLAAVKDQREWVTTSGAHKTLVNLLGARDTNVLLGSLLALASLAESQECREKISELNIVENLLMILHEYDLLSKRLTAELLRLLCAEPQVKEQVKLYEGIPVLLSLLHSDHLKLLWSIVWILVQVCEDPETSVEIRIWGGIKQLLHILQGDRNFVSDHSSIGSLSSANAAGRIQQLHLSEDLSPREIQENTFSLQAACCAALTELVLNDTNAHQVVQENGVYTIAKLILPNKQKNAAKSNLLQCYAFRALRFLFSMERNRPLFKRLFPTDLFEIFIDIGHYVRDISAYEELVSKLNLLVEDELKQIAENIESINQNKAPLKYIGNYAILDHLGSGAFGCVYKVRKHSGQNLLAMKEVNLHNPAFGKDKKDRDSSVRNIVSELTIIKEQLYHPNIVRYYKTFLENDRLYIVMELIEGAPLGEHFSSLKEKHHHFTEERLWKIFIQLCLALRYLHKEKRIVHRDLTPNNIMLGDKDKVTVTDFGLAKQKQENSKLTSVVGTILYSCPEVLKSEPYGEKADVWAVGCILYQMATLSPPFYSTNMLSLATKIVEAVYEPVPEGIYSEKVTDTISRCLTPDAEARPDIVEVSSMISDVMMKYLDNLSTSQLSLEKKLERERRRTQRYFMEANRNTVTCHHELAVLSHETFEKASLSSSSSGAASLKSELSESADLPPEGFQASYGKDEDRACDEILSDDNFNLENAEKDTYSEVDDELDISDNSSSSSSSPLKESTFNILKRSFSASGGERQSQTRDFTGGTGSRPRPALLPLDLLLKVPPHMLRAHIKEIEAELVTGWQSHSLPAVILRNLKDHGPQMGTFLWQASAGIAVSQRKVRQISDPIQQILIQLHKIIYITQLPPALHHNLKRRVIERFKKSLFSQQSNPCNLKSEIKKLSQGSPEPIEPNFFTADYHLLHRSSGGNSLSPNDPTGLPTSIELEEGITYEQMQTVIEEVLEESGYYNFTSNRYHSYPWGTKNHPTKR

panel of 468 kinases [7] = target: T7, panel of 468 kinases (Homo sapiens, UniProt P00533, L858R); conditions: EGFR(L858R); 1 μM; read-out: % control
T7 construct: purchased KINOMEscan (ScanMAX) service
T7 sequence (P00533 25-1210 L858R): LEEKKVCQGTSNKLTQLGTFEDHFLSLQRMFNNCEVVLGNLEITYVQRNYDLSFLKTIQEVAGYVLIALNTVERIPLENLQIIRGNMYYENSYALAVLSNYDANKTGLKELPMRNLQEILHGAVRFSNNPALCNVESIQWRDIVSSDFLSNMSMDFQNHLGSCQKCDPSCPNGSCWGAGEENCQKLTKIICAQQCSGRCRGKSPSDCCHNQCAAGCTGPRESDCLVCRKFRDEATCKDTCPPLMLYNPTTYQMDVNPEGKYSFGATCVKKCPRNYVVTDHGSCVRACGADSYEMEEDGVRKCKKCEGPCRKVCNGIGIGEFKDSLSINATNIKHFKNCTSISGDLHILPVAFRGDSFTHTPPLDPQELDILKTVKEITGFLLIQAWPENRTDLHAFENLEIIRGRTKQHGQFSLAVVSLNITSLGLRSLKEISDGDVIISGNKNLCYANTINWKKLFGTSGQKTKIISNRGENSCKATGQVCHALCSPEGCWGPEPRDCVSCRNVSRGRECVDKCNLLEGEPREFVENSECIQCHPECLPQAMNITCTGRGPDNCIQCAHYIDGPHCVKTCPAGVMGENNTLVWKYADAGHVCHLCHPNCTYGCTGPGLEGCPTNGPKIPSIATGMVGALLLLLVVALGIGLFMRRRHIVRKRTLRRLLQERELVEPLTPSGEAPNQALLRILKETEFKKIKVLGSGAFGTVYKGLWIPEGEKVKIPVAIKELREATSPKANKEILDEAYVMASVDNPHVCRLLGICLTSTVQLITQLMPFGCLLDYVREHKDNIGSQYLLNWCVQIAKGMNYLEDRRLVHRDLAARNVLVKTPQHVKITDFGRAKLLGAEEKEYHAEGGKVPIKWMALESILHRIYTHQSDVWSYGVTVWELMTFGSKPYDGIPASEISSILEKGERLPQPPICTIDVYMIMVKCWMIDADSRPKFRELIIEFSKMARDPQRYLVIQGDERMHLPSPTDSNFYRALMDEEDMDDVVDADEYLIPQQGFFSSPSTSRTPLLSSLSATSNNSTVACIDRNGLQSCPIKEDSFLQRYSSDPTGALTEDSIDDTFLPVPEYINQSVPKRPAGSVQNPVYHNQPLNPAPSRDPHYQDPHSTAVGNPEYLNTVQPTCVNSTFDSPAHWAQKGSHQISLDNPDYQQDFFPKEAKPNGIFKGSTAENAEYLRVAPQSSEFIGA

panel of 468 kinases [8] = target: T8, panel of 468 kinases (Homo sapiens, UniProt P36888, N841I); conditions: FLT3(N841I); 1 μM; read-out: % control
T8 construct: purchased KINOMEscan (ScanMAX) service
T8 sequence (P36888 27-993 N841I): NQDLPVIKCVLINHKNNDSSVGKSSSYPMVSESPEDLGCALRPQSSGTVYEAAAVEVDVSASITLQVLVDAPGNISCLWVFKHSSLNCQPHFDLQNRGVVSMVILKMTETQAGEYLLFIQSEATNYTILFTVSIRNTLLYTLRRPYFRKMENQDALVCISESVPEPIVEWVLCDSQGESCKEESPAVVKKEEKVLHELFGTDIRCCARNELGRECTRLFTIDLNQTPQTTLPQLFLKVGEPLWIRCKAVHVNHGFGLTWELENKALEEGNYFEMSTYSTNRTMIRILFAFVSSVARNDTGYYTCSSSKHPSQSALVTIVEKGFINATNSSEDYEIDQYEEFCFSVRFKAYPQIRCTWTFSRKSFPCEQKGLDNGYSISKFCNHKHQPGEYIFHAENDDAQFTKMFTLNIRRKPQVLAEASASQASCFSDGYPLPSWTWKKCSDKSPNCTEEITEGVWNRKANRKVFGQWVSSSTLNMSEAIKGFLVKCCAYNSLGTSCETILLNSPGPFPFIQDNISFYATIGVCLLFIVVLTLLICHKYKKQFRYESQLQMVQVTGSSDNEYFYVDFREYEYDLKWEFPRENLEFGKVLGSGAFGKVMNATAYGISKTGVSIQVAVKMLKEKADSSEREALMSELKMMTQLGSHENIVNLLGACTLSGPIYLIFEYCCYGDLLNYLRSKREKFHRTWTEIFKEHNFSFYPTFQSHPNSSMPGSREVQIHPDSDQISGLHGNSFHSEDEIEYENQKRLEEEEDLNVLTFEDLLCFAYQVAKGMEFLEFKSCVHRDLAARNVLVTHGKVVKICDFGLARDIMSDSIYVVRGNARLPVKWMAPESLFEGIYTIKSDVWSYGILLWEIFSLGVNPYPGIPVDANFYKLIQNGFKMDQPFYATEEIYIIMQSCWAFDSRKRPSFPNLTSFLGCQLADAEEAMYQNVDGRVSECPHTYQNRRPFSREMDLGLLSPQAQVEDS

T1 sequence (Q04912 25-1400): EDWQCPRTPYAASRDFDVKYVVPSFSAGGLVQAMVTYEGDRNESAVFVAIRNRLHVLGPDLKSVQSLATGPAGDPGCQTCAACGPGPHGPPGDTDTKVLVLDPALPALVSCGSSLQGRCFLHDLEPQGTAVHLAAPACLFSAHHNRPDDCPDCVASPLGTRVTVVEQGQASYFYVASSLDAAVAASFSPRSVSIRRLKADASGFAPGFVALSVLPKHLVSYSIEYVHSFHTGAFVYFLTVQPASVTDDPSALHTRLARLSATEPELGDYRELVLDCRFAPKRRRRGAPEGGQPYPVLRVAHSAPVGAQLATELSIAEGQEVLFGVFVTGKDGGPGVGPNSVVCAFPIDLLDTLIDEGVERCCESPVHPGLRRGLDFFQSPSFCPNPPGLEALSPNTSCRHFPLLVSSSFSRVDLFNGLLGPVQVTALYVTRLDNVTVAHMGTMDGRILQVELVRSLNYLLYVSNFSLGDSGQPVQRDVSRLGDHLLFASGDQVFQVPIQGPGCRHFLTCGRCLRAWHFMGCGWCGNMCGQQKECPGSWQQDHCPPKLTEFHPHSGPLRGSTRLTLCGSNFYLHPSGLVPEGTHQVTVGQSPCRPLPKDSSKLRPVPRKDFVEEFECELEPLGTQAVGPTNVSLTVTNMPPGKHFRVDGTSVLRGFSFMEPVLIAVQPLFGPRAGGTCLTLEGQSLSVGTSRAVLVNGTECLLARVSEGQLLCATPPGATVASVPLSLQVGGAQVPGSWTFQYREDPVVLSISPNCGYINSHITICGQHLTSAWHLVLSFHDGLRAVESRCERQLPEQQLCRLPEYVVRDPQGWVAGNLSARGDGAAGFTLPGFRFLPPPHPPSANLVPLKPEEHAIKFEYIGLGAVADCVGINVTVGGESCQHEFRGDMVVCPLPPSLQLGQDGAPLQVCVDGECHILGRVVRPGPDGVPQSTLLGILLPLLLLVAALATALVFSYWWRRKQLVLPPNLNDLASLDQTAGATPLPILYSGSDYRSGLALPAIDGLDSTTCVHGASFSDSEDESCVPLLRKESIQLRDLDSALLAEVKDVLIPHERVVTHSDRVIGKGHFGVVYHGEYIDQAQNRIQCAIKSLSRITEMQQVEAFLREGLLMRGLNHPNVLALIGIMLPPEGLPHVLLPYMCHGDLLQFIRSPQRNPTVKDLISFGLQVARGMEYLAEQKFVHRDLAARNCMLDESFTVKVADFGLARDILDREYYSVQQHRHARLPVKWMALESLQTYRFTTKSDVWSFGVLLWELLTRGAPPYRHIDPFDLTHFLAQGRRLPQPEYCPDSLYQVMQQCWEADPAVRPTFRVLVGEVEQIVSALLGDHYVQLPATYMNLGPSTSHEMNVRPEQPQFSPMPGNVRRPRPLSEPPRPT

Row | Structure (SMILES) | remaining binding at 1 µM (panel of 468 kinases [1]) [%] | remaining binding at 1 µM (panel of 468 kinases [2]) [%] | remaining binding at 1 µM (panel of 468 kinases [3]) [%] | remaining binding at 1 µM (panel of 468 kinases [4]) [%] | remaining binding at 1 µM (panel of 468 kinases [5]) [%] | remaining binding at 1 µM (panel of 468 kinases [6]) [%] | remaining binding at 1 µM (panel of 468 kinases [7]) [%] | remaining binding at 1 µM (panel of 468 kinases [8]) [%]
1 | CNc1nc(Nc2ccc(C(=O)N3CCC(N4CCOCC4)CC3)c3c2OCO3)nc2[nH]cc(Cl)c12 [Compound 75, (7-((5-chloro-4-(methylamino)-7H-pyrrolo[2,3-d]pyrimidin-2-yl)amino)benzo[d][1,3]dioxol-4-yl)(4-morpholinopiperidin-1-yl)methanone] | 100 | 62 | 95 | 100 | 100 | 66 | 100 | 65
2 | CNc1nc(Nc2ccc(S(=O)(=O)N3CCC(N4CCOCC4)CC3)cc2OC)nc2[nH]cc(Cl)c12 [Compound 12, 5-chloro-N2-(2-methoxy-4-((4-morpholinopiperidin-1-yl)sulfonyl)phenyl)-N4-methyl-7H-pyrrolo[2,3-d]pyrimidine-2,4-diamine] | 100 | 100 | 85 | 100 | 100 | 63 | 100 | 85
3 | CNc1nc(Nc2ccc(P3(=O)CCN(C4CCOCC4)CC3)cc2OC)nc2[nH]cc(Cl)c12 [Compound 77, 4-(4-((5-chloro-4-(methylamino)-7H-pyrrolo[2,3-d]pyrimidin-2-yl)amino)-3-methoxyphenyl)-1-(tetrahydro-2H-pyran-4-yl)-1,4-azaphosphinane 4-oxide] | 100 | 81 | 87 | 100 | 100 | 39 | 76 | 99
